Results: the NIST ThermoML archive (doi:10.1016/j.jct.2009.06.019)
± gives the expanded uncertainty stated by the source.

How the values were obtained:
[1] = 101.33 kPa, Liquid, Vibrating tube method
[2] = xn = mol fraction of the nth substance listed; settings: 101.3 kPa, Liquid, Vibrating tube method

CN1CCN(C)C1=O [1,3-dimethyl-2-imidazolidinone]
[1]
Settings	mass density [kg/m3]
278.15 K	1069.3 ± 0.06
288.15 K	1060.43 ± 0.06
298.15 K	1051.6 ± 0.06
308.15 K	1042.79 ± 0.06
313.15 K	1038.38 ± 0.06
318.15 K	1034 ± 0.05

CN1CCN(C)C1=O [1,3-dimethyl-2-imidazolidinone] + O
mass density [kg/m3], [2]
Settings	278.15 K	288.15 K	298.15 K	308.15 K	313.15 K	318.15 K
x1 = 0.000904	1000.51 ± 0.04	999.59 ± 0.04	997.49 ± 0.04	994.45 ± 0.04	992.61 ± 0.05	990.61 ± 0.05
x1 = 0.001349	1000.75 ± 0.04	999.82 ± 0.04	997.72 ± 0.04	994.65 ± 0.04	992.81 ± 0.05	990.8 ± 0.05
x1 = 0.001765	1000.99 ± 0.04	1000.04 ± 0.04	997.92 ± 0.04	994.84 ± 0.04	992.99 ± 0.05	990.96 ± 0.05
x1 = 0.002486	1001.42 ± 0.04	1000.44 ± 0.04	998.29 ± 0.04	995.19 ± 0.04	993.33 ± 0.05	991.29 ± 0.05
x1 = 0.003566	1002.08 ± 0.04	1001.05 ± 0.04	998.84 ± 0.04	995.7 ± 0.04	993.82 ± 0.05	991.77 ± 0.05
x1 = 0.004326	1002.53 ± 0.04	1001.45 ± 0.04	999.22 ± 0.04	996.05 ± 0.04	994.15 ± 0.05	992.09 ± 0.05
x1 = 0.005478	1003.25 ± 0.04	1002.09 ± 0.04	999.81 ± 0.04	996.59 ± 0.04	994.68 ± 0.04	992.59 ± 0.05
x1 = 0.006268	1003.72 ± 0.04	1002.53 ± 0.04	1000.22 ± 0.04	996.97 ± 0.04	995.04 ± 0.04	992.94 ± 0.05
x1 = 0.006996	1004.16 ± 0.04	1002.93 ± 0.04	1000.57 ± 0.04	997.3 ± 0.04	995.36 ± 0.04	993.25 ± 0.05
x1 = 0.008039	1004.82 ± 0.04	1003.54 ± 0.04	1001.14 ± 0.04	997.82 ± 0.04	995.85 ± 0.04	993.72 ± 0.05
x1 = 0.008854	1005.33 ± 0.04	1004.01 ± 0.04	1001.57 ± 0.04	998.22 ± 0.04	996.23 ± 0.04	994.08 ± 0.05

CN1CCN(C)C1=O [1,3-dimethyl-2-imidazolidinone] + [2H]O[2H]
mass density [kg/m3], [2]
Settings	278.15 K	288.15 K	298.15 K	308.15 K	313.15 K	318.15 K
x1 = 0.001014	1105.53 ± 0.07	1105.7 ± 0.07	1104.24 ± 0.07	1101.46 ± 0.07	1099.65 ± 0.07	1097.62 ± 0.07
x1 = 0.001853	1105.6 ± 0.07	1105.72 ± 0.07	1104.2 ± 0.07	1101.34 ± 0.07	1099.52 ± 0.07	1097.48 ± 0.07
x1 = 0.002463	1105.67 ± 0.07	1105.72 ± 0.07	1104.15 ± 0.07	1101.29 ± 0.07	1099.44 ± 0.07	1097.38 ± 0.07
x1 = 0.003372	1105.77 ± 0.07	1105.73 ± 0.07	1104.13 ± 0.07	1101.19 ± 0.07	1099.33 ± 0.07	1097.23 ± 0.07
x1 = 0.004298	1105.89 ± 0.07	1105.78 ± 0.07	1104.08 ± 0.07	1101.13 ± 0.07	1099.22 ± 0.07	1097.09 ± 0.07
x1 = 0.004982	1105.97 ± 0.08	1105.83 ± 0.07	1104.06 ± 0.07	1101.05 ± 0.07	1099.13 ± 0.07	1097.01 ± 0.07
x1 = 0.006229	1106.16 ± 0.08	1105.89 ± 0.08	1104.06 ± 0.07	1100.95 ± 0.07	1099 ± 0.07	1096.83 ± 0.07
x1 = 0.007163	1106.33 ± 0.08	1105.96 ± 0.08	1104.06 ± 0.07	1100.89 ± 0.07	1098.91 ± 0.07	1096.72 ± 0.07
x1 = 0.008054	1106.48 ± 0.08	1106.05 ± 0.08	1104.07 ± 0.07	1100.87 ± 0.07	1098.85 ± 0.07	1096.62 ± 0.07
x1 = 0.009084	1106.65 ± 0.08	1106.13 ± 0.08	1104.08 ± 0.07	1100.81 ± 0.07	1098.77 ± 0.07	1096.51 ± 0.07
x1 = 0.01051	1106.96 ± 0.08	1106.33 ± 0.08	1104.16 ± 0.07	1100.77 ± 0.07	1098.67 ± 0.07	1096.37 ± 0.07

[2H]O[2H] [water-d2] + CN1CCN(C)C1=O
[2], x2 = 0
Settings	mass density [kg/m3]
278.15 K	1105.46 ± 0.07
288.15 K	1105.7 ± 0.07
298.15 K	1104.31 ± 0.07
308.15 K	1101.59 ± 0.07
313.15 K	1099.83 ± 0.07
318.15 K	1097.81 ± 0.07
